# Measured values taken from ChEMBL document CHEMBL1148031, “Rational design of inhibitors of VirA-VirG two-component signal transduction” (Bioorg Med Chem Lett, 2007).
# Test system: Agrobacterium tumefaciens
# Assay: Inhibition of acetosyringone-induced virB::lacZ expression in Agrobacterium tumefaciens A348/pSW209
# Type: functional, organism-based
row,IC50 [µM],Structure (SMILES)
1,> 200,COc1cccc2c1C(=O)OC2O (configuration not stated)
2,30,COc1ccc(N(O)C(=O)C=O)c(O)c1
3,> 400,O=CCC(=O)N(O)c1ccccc1
4,25,O=CC(=O)Oc1ccccc1
5,34,COc1ccccc1C(=O)C=O
6,35,O=CC(=O)Nc1ccccc1
7,25,COc1cc(OC)c(C=O)c(C(C)=O)c1
8,> 200,CCCCC(=O)c1c(OC)cc(OC)cc1C(=O)O
9,> 200,COc1cc(OC)c(C(C)=O)c(C(C)=O)c1
10,> 200,COc1cc(C=O)cc(OC)c1
11,> 200,COc1cc(CC(=O)O)c(C=O)c(OC)c1
12,> 200,COc1cc(OC)c2c(c1N)C(=O)OC2O (configuration not stated)
13,> 200,COc1cc(OC)c2c(c1NC(C)=O)C(=O)OC2O (configuration not stated)
14,25,O=C1OC(O)c2ccccc21 (configuration not stated)
15,> 200,COc1cc(OC)c(C(C)=O)c(C(=O)O)c1
16,> 200,O=Cc1ccccc1C(=O)O

row,IC50 [µM],Structure (SMILES)
1,> 200,COc1ccc(C=O)c(OC)c1
2,20,CCCCC(=O)c1ccccc1C=O
3,8,CCOc1cc(OCC)c2c(c1)C(=O)OC2O (configuration not stated)
4,25,COc1cc(C=O)c(C(C)=O)c(OC)c1
5,10,CCCCC(=O)c1cc(OC)cc(OC)c1C=O
6,25,CC(=O)c1ccccc1C=O
7,41,COc1ccc2c(c1)C(O)OC2=O (configuration not stated)
8,> 100,COc1cc(OC)c2c(c1O)C(=O)OC2O (configuration not stated)
9,< 1,COc1ccc(N(OC)C(=O)C=O)c(O)c1
10,25,O=CC(=O)N(O)c1ccccc1
11,> 200,COc1ccc2c(c1)C(=O)OC2O (configuration not stated)
12,> 200,COc1cc(OC)c([N+](=O)[O-])c2c1C(O)OC2=O (configuration not stated)
13,10,CCCCC(=O)c1c(C=O)cc(OC)cc1OC
14,> 200,COc1cccc2c1C(O)OC2=O (configuration not stated)
15,8,COc1cc(OC)c(C=O)c(C(=O)O)c1
16,40,O=CC(=O)c1ccccc1 [PHENYLGLYOXAL]
